Reference: patent EP4700025A1, “AMIDE COMPOUND, PHARMACEUTICAL COMPOSITION COMPRISING SAME, AND USE THEREOF” (Suzhou Genhouse Bio Co., Ltd., priority 2023, dated 2024)

How the values were obtained:
SDMA [1] = assay: SDMA Inhibition Assay in HCT-116 cells; assay type: cell-based; conditions: Homo sapiens, HCT-116, 96 hours
Method: (§1) The next day, the cells were treated with the compounds at different concentrations (with an initial concentration of 10 µM, 5-fold dilution, 9 concentration gradients). After 96 hours, the culture medium was pipetted out and the cells were washed 2 times with 100 µL of PBS. The cells were then fixed with 4% paraformaldehyde and incubated at room temperature for 20 min. The fixative solution was discarded, and the cells were washed with PBS. 150 µL of specialized blocking solution (containing 1% Triton-100) was added to each well for blocking at room temperature for 2 hours, and the plate was washed with PBS to remove excess blocking solution. […] The cells were incubated at 4 °C overnight. The next day, the cells were separately washed 2 times with 1× PBST. […] The cells were incubated at room temperature for 2 hours. The cells were washed 2 times with 1× PBST and 1 time with PBS. Fluorescence signals at 700 nm and 800 nm were separately detected using a Li-COR Odyssey two-color near-infrared laser imager. The inhibition rates were calculated, and the EC50 values were determined by fitting using the GraphPad Prism 7.0 software. Table 3. Inhibition of SDMA by test compounds

HCT-116-MTAP^-/- = assay: CCK8 proliferation inhibition, HCT-116-MTAP^-/-; assay type: cell-based; conditions: Homo sapiens, 192 h; HCT-116-MTAP^-/- (MTAP-deficient); CCK8, 8 days after drug treatment
Method: (§2) The above normally growing cells were digested with a cell trypsinization solution, centrifuged, counted, and seeded into a 96-well plate at an appropriate cell density (2000 cells/well) at 100 µL/well. The next day after cell seeding, the compounds at different concentrations were added to the wells. Three replicate wells were set for each concentration point, and a corresponding DMSO negative control group was also set. CCK8 solution was added to each well 8 days after drug treatment. The plate was incubated at 37 °C for a period of time (OD450 of the vehicle group reached 1.0 or higher) before the absorbance at 450 nm was read using a microplate reader. The inhibition rates were calculated, and the EC50 values were determined by fitting using the GraphPad Prism 7.0 software. Table 2. EC50 values of compounds at cellular level

HCT-116 = assay: CCK8 proliferation inhibition, HCT-116; assay type: cell-based; conditions: Homo sapiens, 192 h, CCK8, 8 days after drug treatment
Method: as §2

[2] = Mouse brain-to-blood and tumor tissue-to-blood drug concentration ratio (PC-9 tumor-bearing mice); assay type: in vivo, Balb/c-nude female mice; conditions: 5 mg/kg PO, PC-9 tumor-bearing mice
Method: Human lung cancer PC-9 cells were cultured in monolayer in vitro using the 1640 culture medium (HyClone) containing 10% fetal bovine serum (BI) and 1% penicillin and streptomycin (Beyotime) in an incubator at 37 °C with 5% CO2. The cells were digested with trypsin 2 to 3 times weekly for passaging. When the saturation degree of the cells was 80% to 90%, the cells were collected, counted, and inoculated. 5 × 10^6 (0.2 mL, 1:1 gel addition) PC-9 cells were subcutaneously inoculated into the right back of Balb/c-nude female mice, and the mice were used for subsequent PK and tissue distribution experiments after the mean tumor volume reached about 500 mm^3. On the day of administration, mice were weighed for actual body weight and the administration volume was calculated. In each group of 9 mice, the compound was administered by single intravenous injection or oral gavage. Whole blood samples were collected via the orbit at prescribed time points. After the blood sample collection, the samples were immediately transferred to labeled commercial sample tubes containing K2-EDTA (0.85 to 1.15 mg), followed by centrifugation (3200× g, 4 °C, 10 min) and plasma collection. The plasma was transferred to a pre-cooled centrifuge tube, frozen in dry ice, and then stored in an ultra-low temperature freezer at -60 °C or lower until the LC-MS/MS analysis was performed. Tumor and brain tissues were collected after the animals were euthanized using CO2 at prescribed time points, frozen in liquid nitrogen, and stored in an ultra-low temperature freezer at -60 °C or lower until the LC-MS/MS analysis was performed. 20 µL of the plasma sample or brain/tumor tissue homogenate was added to 80 µL of an internal standard solution (a 50 ng/mL solution of propafenone in acetonitrile). The plate was sealed using a film sealer at 165 °C, shaken on a micro oscillator (at the maximum vibration speed) for 10 min, and centrifuged at 4000 rpm for 20 min using a low-speed benchtop centrifuge; 10 µL of the supernatant was transferred and added to 90 µL of acetonitrile. The mixture was vortexed and mixed well, and then the plate was sealed using the film sealer at 165 °C. After the mixture was vortexed and mixed well, 1 µL of the supernatant was subjected to LC-MS/MS analysis.
• Brain-to-blood drug concentration ratio of mice at the same time point = drug concentration in brain tissue/drug concentration in plasma • Tumor tissue-to-blood drug concentration ratio of mice at the same time point = drug concentration in tumor tissue/drug concentration in plasma

SDMA [3] = assay: SDMA Inhibition Assay in HCT-116-MTAP^-/- cells; assay type: cell-based; conditions: Homo sapiens, 96 hours
Method: as §1

A549 = assay: CCK8 proliferation inhibition, A549; assay type: cell-based; conditions: Homo sapiens, 192 h, CCK8, 8 days after drug treatment
Method: as §2

SDMA [4] = assay: SDMA Inhibition Assay in A549 cells; assay type: cell-based; conditions: Homo sapiens, A549, 96 hours
Method: as §1

Row | SMILES | EC50 (SDMA [1]) | EC50 (HCT-116-MTAP^-/-) | EC50 (HCT-116) | Brain-to-blood drug concentration ratio ([2]; 1 h) | Drug concentration in blood ([2]; 1 h) | Drug concentration in brain ([2]; 1 h) | Drug concentration in tumor tissue ([2]; 1 h) | Tumor tissue-to-blood drug concentration ratio ([2]; 1 h) | Brain-to-blood drug concentration ratio ([2]; 4 h) | Drug concentration in blood ([2]; 4 h) | Drug concentration in brain ([2]; 4 h) | Drug concentration in tumor tissue ([2]; 4 h) | Tumor tissue-to-blood drug concentration ratio ([2]; 4 h) | EC50 (SDMA [3]) | EC50 (A549) | EC50 (SDMA [4])
1 | Cn1ncc2c(N)nc3cnc(C(=O)N4CCN(C5CC5)CC4c4ccc5c(c4)OC(F)(F)O5)cc3c21 (racemic) [Example I-112] | 285 nM | 57 nM | > 10000 nM | 1.17 | 220 ng/mL | 258 ng/mL | 346 ng/mL | 1.57 | 3.05 | 10.3 ng/mL | 31.3 ng/mL | 93 ng/mL | 9.05 | 2.9 nM |  | 
2 | CC1OCc2c1c(N)nc1cc(F)c(C(=O)N3CCOC[C@@H]3c3ccc4c(c3)OC(F)(F)O4)cc21 (single isomer, unassigned) [I-34 (PEAK2)] | 60.7 nM | 8.3 nM | 980 nM |  |  |  |  |  |  |  |  |  |  | 1.1 nM | 43.5 nM | 1.3 nM
3 | CCN(Cc1ccc2c(c1)OC(F)(F)O2)C(=O)c1cc2c(cc1F)nc(N)c1cnn(C)c12 [Example I-6] |  | 2.4 nM | 389 nM |  |  |  |  |  |  |  |  |  |  | 2 nM | 27.4 nM | 1.9 nM
4 | C[C@@H]1COCC(c2ccc3c(c2)OC(F)(F)O3)N1C(=O)c1ccc2nc(N)c3cnn(C)c3c2c1 (some centres unmarked) [Example I-12] |  | 2.7 nM | 287 nM |  |  |  |  |  |  |  |  |  |  | 0.5 nM | 8.9 nM | 0.3 nM
5 | CC(C)N(Cc1ccc2c(c1)OC(F)(F)O2)C(=O)c1ccc2nc(N)c3cnn(C)c3c2c1 [Example I-14] | 374 nM | 7.9 nM | 1200 nM |  |  |  |  |  |  |  |  |  |  | 5.3 nM | 36.9 nM | 2 nM
6 | Cn1ncc2c(N)nc3cc(F)c(C(=O)N(Cc4ccc5c(c4)OC(F)(F)O5)[C@@H]4CCOC4)cc3c21 [Example I-22] |  | 5.6 nM | 935 nM |  |  |  |  |  |  |  |  |  |  | 1.1 nM | 18.5 nM | 0.6 nM
7 | Cn1ncc2c(N)nc3cc(F)c(C(=O)N(Cc4ccc5c(c4)OC(F)(F)O5)[C@H]4CCOC4)cc3c21 [Example I-25] | 123 nM | 5.3 nM | 1320 nM |  |  |  |  |  |  |  |  |  |  | 1.4 nM | 33 nM | 0.8 nM
8 | COC[C@H](C)N(Cc1ccc2c(c1)OC(F)(F)O2)C(=O)c1cc2c(cc1F)nc(N)c1cnn(C)c12 [Example I-26] |  | 3.5 nM |  |  |  |  |  |  |  |  |  |  |  | 1.7 nM | 10.1 nM | 0.6 nM
9 | Cn1ncc2c(N)nc3cc(F)c(C(=O)N(Cc4ccc5c(c4)OC(F)(F)O5)C[C@@H]4COCCO4)cc3c21 [Example I-27] | 120 nM | 4.2 nM | 510 nM |  |  |  |  |  |  |  |  |  |  | 1 nM | 24.4 nM | 0.8 nM
10 | Cn1ncc2c(N)nc3cc(F)c(C(=O)N(Cc4ccc5c(c4)OC(F)(F)O5)C4COC4)cc3c21 [Example I-29] | 292 nM | 6.1 nM | 1210 nM |  |  |  |  |  |  |  |  |  |  | 2.6 nM | 50.6 nM | 2.7 nM
11 | Cn1ncc2c(N)nc3cc(F)c(C(=O)N(Cc4ccc5c(c4)OC(F)(F)O5)C[C@H]4COCCO4)cc3c21 [Example I-30] | 125 nM | 6.4 nM | 411 nM |  |  |  |  |  |  |  |  |  |  | 2 nM | 38.5 nM | 1.9 nM
12 | CC1OCc2c1c(N)nc1cc(F)c(C(=O)N3CCOC[C@@H]3c3ccc4c(c3)OC(F)(F)O4)cc21 (some centres unmarked) [Example I-34] | 293 nM | 9 nM | 1630 nM |  |  |  |  |  |  |  |  |  |  | 3.1 nM | 70.8 nM | 2.8 nM
13 | CC1OCc2c1c(N)nc1cc(F)c(C(=O)N3C(c4ccc5c(c4)OC(F)(F)O5)COC[C@H]3C)cc21 (some centres unmarked) [Example I-39] |  | 2.5 nM |  |  |  |  |  |  |  |  |  |  |  | 0.7 nM | 18.5 nM | 0.9 nM
14 | Cn1cnc(CN(Cc2ccc3c(c2)OC(F)(F)O3)C(=O)c2cc3c(cc2F)nc(N)c2cnn(C)c23)n1 [Example I-41] |  | 1.6 nM |  |  |  |  |  |  |  |  |  |  |  | 0.7 nM | 16.8 nM | 1.1 nM
15 | Cn1ncc2c(N)nc3cc(C#N)c(C(=O)N4CCOC[C@@H]4c4ccc5c(c4)OC(F)(F)O5)cc3c21 [Example I-53] | 68.7 nM | 5.3 nM | 210 nM |  |  |  |  |  |  |  |  |  |  | 0.7 nM | 15.5 nM | 1 nM
16 | Cn1ncc2c(N)nc3cc(C#N)c(C(=O)N(Cc4ccc5c(c4)OC(F)(F)O5)C4CC4)cc3c21 [Example I-54] | 61.7 nM | 4.2 nM | 672 nM |  |  |  |  |  |  |  |  |  |  | 1.8 nM | 28.9 nM | 1.3 nM
17 | Cn1ncc2c(N)nc3cc(F)c(C(=O)N4CCCC[C@@H]4c4ccc5c(c4)OC(F)(F)O5)cc3c21 [Example I-80] | 65 nM | 4.7 nM | 201 nM |  |  |  |  |  |  |  |  |  |  | 0.9 nM | 12.8 nM | 2.2 nM
18 | Cn1ncc2c(N)nc3cnc(C(=O)N4CCCC[C@@H]4c4ccc5c(c4)OC(F)(F)O5)cc3c21 [Example I-111] | 254 nM | 15 nM | 2170 nM |  |  |  |  |  |  |  |  |  |  | 1 nM | 77 nM | 1.6 nM
